Measurements from patent US8426469B2, “Crystalline leukotriene B4” (LTB4 Sweden AB, priority 2006, dated 2013).
“Also recorded” adds a separate entry of the source.

Key:
[1] = solubility of LTB4 in various solvents; format: physicochemical; settings: Table 1; the value is the solvent
Text: Table 1 below summarizes the solubility of LTB4 in various solvents.

[2] = stability of leukotriene B4 as a function of pH; format: physicochemical; settings: alkaline pH versus neutral or acidic pH
Text: Accordingly, in a preferred embodiment, the composition according to the present invention comprises an alkaline reacting carrier. The expression “alkaline reacting carrier”, in the context of the present invention, is intended to include an otherwise inert, pharmaceutically acceptable substance (or substances), which creates an alkaline “micro-pH” between 8.2 and 14, especially between 8.5 and 12.5, such as between 8.5 and 11.5, most preferably between 9.5 and 11.5, such as about 9.5, 9.6, 9.7, 9.8, 9.9, 10.0, 10.1, 10.2, 10.3, 10.4, 10.5, 10.6, 10.7, 10.8, 10.9, 11.0, 11.1, 11.2, 11.3, 11.4, or 11.5, around each LTB4 particle when water is adsorbed to the particles of the mixture or when water is added in small amounts to the mixture. In another preferred embodiment, the alkaline “micro-pH” ranges between 8.0 and 9.0, between 8.5 and 9.5, between 9.0 and 10.0, or between 10.0 and 11.5. […]

[3] = pH 7.0-7.6, stored at 2° C. to 25° C. (and above 25° C.); cited from earlier work

## CCCCC/C=C\C[C@@H](O)/C=C/C=C/C=C\[C@@H](O)CCCC(=O)O [LTB4, 5S,12R-dihydroxy-6,8,10,14(Z,E,E,Z)-eicosatetraenoic acid]
[1]
  Slightly soluble or insoluble (solvent in which LTB4 is slightly soluble or insoluble; anti-solvent): Toluene; also recorded: Water; also recorded: Heptane
[2]
  stability depending on pH: more stable at alkaline pH than at neutral or acidic pH
[3]
  stability of isotonic aqueous solution: stable for only short periods of time (weeks to months)
